Assay results: US5025015A, “Thioformamidines, and use as medicaments” (Pierre Fabre Medicament, priority 1988, dated 1991)

Key:
gastric secretion = gastric secretion by ligature of the pylorus using Shay's technique, male Sprague-Dawley rats; assay type: in vivo; settings: rat, intraduodenal route, 50 mg/kg, acute
Method: 1. […] Acute treatment by intraduodenal route in a dose of 50 mg/kg.

[1] = test system: ulcers with acetyl salicylic acid; assay: activity toward ulcers with acetyl salicylic acid quantified in accordance with the Pfeiffer scale, male rats; assay type: in vivo; settings: orally, acute

Compound	% Variation: decrease of the volume secreted (gastric secretion) [%]	% Variation: increase of the intragastric pH (gastric secretion) [%]	% Inhibition of the ulcer lesions ([1]; dose 40 mg/kg) [%]	% Inhibition of the ulcer lesions ([1]; dose 50 mg/kg) [%]
CNC(=NCCSCc1nc[nH]c1C)NC#N [Cimetidine, N-Cyano-N'-methyl-N''-[2-[[(5-methyl-1H-imidazol-4-yl)methyl]thio]ethyl]guanidine, reference compound]	47	90	46	
CN(C(=O)CSc1ncc[nH]1)c1ccc(Cl)cc1C(=O)c1ccccc1Cl [Product 7]	70	118	46	
CN(C(=O)CSC1=NCCN1)c1ccc(Cl)cc1Cc1ccccc1 [Product 12]			40	
CN(C(=O)CSc1ncc[nH]1)c1ccc(Cl)cc1C(=O)c1ccccc1 [Product 15]	50	181		35
CN(C(=O)CSC(=N)N)c1ccc(Cl)cc1C(=O)c1ccccc1Cl [Product 16]	79	153		32
N-methyl 2'-(orthochloro-α-hydroxybenzyl)-4'-chloro 2-[2-(Δ2-imidazolinyl)thio]acetanilide [Product 11]	76	267		
N-methyl 2-[2-(Δ2-imidazolinyl)thio]2'-benzoyl-4'-chloroacetanilide hydrochloride [Product 2]	76	158	34	
